In article PMC9573696, “Experimental Examination of Solubility and Lipophilicity as Pharmaceutically Relevant Points of Novel Bioactive Hybrid Compounds” (Molecules, 2022):
In brackets after ≈: the same amount, converted by molar mass. Marks after values point to notes of the source that are not given here.

Assay: Equilibrium (thermodynamic) solubility, shake-flask method
Assay type: physicochemical
Details: for Solubility S × 10^3 / Solubility x × 10^3 / Solubility x × 10^5 / Solubility S × 10^4 / Solubility x × 10^6 / Solubility x × 10^4 / Solubility S × 10^2 / Solubility S × 10^5: amorphous state; for solubility at 2 days: 25 °C, organic solvent or mixture, thermodynamic from solid, 1-octanol, text values match 298.15 K, read-out: Solubility S in the alcohol (1-octanol)
Text: The experimental solubility values of hybrids in the selected solvents within the temperature range of 293.15–313.15 K expressed in molarity are summarized in Table 2. The comparative analysis of the reference values of the solubility of compounds I–III at the standard temperature of 298.15 K is given as a histogram in Figure 3.
Shake-flask method as “gold standard” was used for determination thermodynamic solubility synthesized compounds in buffer solutions (pH 2.0 and 7.4) and 1-octanol in the temperature range of 293.15–313.15 K with a step of 5 degrees at atmospheric pressure. Excessive amounts of compound were added to glass vials c 12 mL of selected solvent. The heterogeneous system is closed with a lid and vigorously stirred at the selected temperature in an air thermostat with a stirring device until the solubility equilibrium has been reached. The time required for establishing a constant value of the solution concentration was determined from the solubility kinetic dependences and averaged 2 days. The equilibrated solutions were first survived to aim sedimentation of solid phase during 10 h, then centrifuged at 20,000 rpm for 30 min at specific temperatures, and then quickly filtered using a syringe equipped with a hydrophilic filter Millex-GV 0.22 µm (Ireland). Concentration of saturated solution was measured using spectrophotometer Cary-50 (Varian, USA) with an accuracy of 2–4%. The absorbances of compounds studied were measured at wavelengths 332 and 334 nm in buffer solutions and 1-octanol, respectively. If necessary, an aliquot was diluted with an appropriate solvent. The final pH of the saturated buffers was monitored. The solubility of compounds in each solvent was determined by repeating the procedure three times.
Mole fraction concentration was calculated from solubility value S expressed in mol∙L^−1 using Equation (10):(10) x=M2S/S(M2−M1)+1000ρ, where M1 and M2 are the molar masses of solute and solvent, respectively, and ρ (g∙cm^−3) is the density of the pure solvents. The mole fraction solubilities for buffer solutions were calculated taking into account the buffer compositions. The used values of densities are given in Table S6 in Supplementary Material.

Row | SMILES | Solubility S × 10^3 (1-Octanol, 293.15 K) | Solubility x × 10^3 (1-Octanol, 293.15 K) | Solubility S × 10^3 (1-Octanol, 298.15 K) | Solubility x × 10^3 (1-Octanol, 298.15 K) | Solubility S × 10^3 (1-Octanol, 303.15 K) | Solubility x × 10^3 (1-Octanol, 303.15 K) | Solubility S × 10^3 (1-Octanol, 308.15 K) | Solubility x × 10^3 (1-Octanol, 308.15 K) | Solubility S × 10^3 (1-Octanol, 313.15 K) | solubility at 2 days [mM] | Solubility x × 10^5 (Buffer pH 2.0, 293.15 K) | Solubility x × 10^5 (Buffer pH 2.0, 298.15 K) | Solubility x × 10^5 (Buffer pH 2.0, 303.15 K) | Solubility x × 10^5 (Buffer pH 2.0, 308.15 K) | Solubility x × 10^5 (Buffer pH 2.0, 313.15 K) | Solubility x × 10^6 (Buffer pH 7.4, 293.15 K) | Solubility x × 10^6 (Buffer pH 7.4, 298.15 K) | Solubility x × 10^6 (Buffer pH 7.4, 303.15 K) | Solubility x × 10^6 (Buffer pH 7.4, 308.15 K) | Solubility x × 10^6 (Buffer pH 7.4, 313.15 K) | other results
1 | Cc1ccc(-n2c(=S)sc3c(=O)n(CCCN4CCN(CC(O)(Cn5cncn5)c5ccc(F)cc5F)CC4)cnc32)cc1 (stereo not drawn) [I, 6-[3-[4-[2-(2,4-difluorophenyl)-2-hydroxy-3-(1H-1,2,4-triazol-1-yl)propyl]-1-piperazinyl]propyl]-2,3-dihydro-3-(4-methylphenyl)-2-thioxo-thiazolo[4,5-d]pyrimidin-7(6H)-one] | 7.0781 mol∙L^−1 (printed as S × 10^3) | 1.1199 mol. frac. (printed as x × 10^ | 7.5389 mol∙L^−1 (printed as S × 10^3) | 1.1981 mol. frac. (printed as x × 10^ | 8.0826 mol∙L^−1 (printed as S × 10^3) | 1.2903 mol. frac. (printed as x × 10^ | 8.6264 mol∙L^−1 (printed as S × 10^3) | 1.3835 mol. frac. (printed as x × 10^ | 9.2070 mol∙L^−1 (printed as S × 10^3) | 7.54 (≈ 4820 µg/mL) | 3.3040 mol. frac. (printed as x × 10^ | 3.5732 mol. frac. (printed as x × 10^ | 3.8570 mol. frac. (printed as x × 10^ | 4.1749 mol. frac. (printed as x × 10^ | 4.5144 mol. frac. (printed as x × 10^ | 2.0541 mol. frac. (printed as x × 10^ | 2.2653 mol. frac. (printed as x × 10^ | 2.4636 mol. frac. (printed as x × 10^ | 2.6820 mol. frac. (printed as x × 10^ | 2.9135 mol. frac. (printed as x × 10^ | Solubility x × 10^3 (1-Octanol, 313.15 K): 1.4834 mol. frac. (printed as x × 10^; Solubility S × 10^3 (Buffer pH 2.0, 293.15 K): 1.8307 mol∙L^−1 (printed as S × 10^3); Solubility S × 10^3 (Buffer pH 2.0, 298.15 K): 1.9773 mol∙L^−1 (printed as S × 10^3); Solubility S × 10^3 (Buffer pH 2.0, 303.15 K): 2.1311 mol∙L^−1 (printed as S × 10^3); Solubility S × 10^3 (Buffer pH 2.0, 308.15 K): 2.3027 mol∙L^−1 (printed as S × 10^3); Solubility S × 10^3 (Buffer pH 2.0, 313.15 K): 2.4851 mol∙L^−1 (printed as S × 10^3); Solubility S × 10^4 (Buffer pH 7.4, 293.15 K): 1.1295 mol∙L^−1 (printed as S × 10^4); Solubility S × 10^4 (Buffer pH 7.4, 298.15 K): 1.2441 mol∙L^−1 (printed as S × 10^4); Solubility S × 10^4 (Buffer pH 7.4, 303.15 K): 1.3510 mol∙L^−1 (printed as S × 10^4); Solubility S × 10^4 (Buffer pH 7.4, 308.15 K): 1.4682 mol∙L^−1 (printed as S × 10^4); Solubility S × 10^4 (Buffer pH 7.4, 313.15 K): 1.5920 mol∙L^−1 (printed as S × 10^4)
2 | O=c1c2sc(=S)n(-c3ccc(F)cc3)c2ncn1CCCN1CCN(CC(O)(Cn2cncn2)c2ccc(F)cc2F)CC1 (stereo not drawn) [II, 6-[3-[4-[2-(2,4-difluorophenyl)-2-hydroxy-3-(1H-1,2,4-triazol-1-yl)propyl]-1-piperazinyl]propyl]-2,3-dihydro-3-(4-fluorophenyl)-2-thioxo-thiazolo[4,5-d]pyrimidin-7(6H)-one] | 5.3994 mol∙L^−1 (printed as S × 10^3) |  | 5.6703 mol∙L^−1 (printed as S × 10^3) |  | 5.8834 mol∙L^−1 (printed as S × 10^3) |  | 6.1187 mol∙L^−1 (printed as S × 10^3) |  | 6.3807 mol∙L^−1 (printed as S × 10^3) | 5.67 (≈ 3640 µg/mL) | 1.9402 mol. frac. (printed as x × 10^ | 2.2272 mol. frac. (printed as x × 10^ | 2.5822 mol. frac. (printed as x × 10^ | 2.9451 mol. frac. (printed as x × 10^ | 3.3404 mol. frac. (printed as x × 10^ | 5.4794 mol. frac. (printed as x × 10^ | 5.8122 mol. frac. (printed as x × 10^ | 6.1623 mol. frac. (printed as x × 10^ | 6.4929 mol. frac. (printed as x × 10^ | 6.8581 mol. frac. (printed as x × 10^ | Solubility x × 10^4 (1-Octanol, 293.15 K): 8.5358 mol. frac. (printed as x × 10^; Solubility x × 10^4 (1-Octanol, 298.15 K): 9.0027 mol. frac. (printed as x × 10^; Solubility x × 10^4 (1-Octanol, 303.15 K): 9.3813 mol. frac. (printed as x × 10^; Solubility x × 10^4 (1-Octanol, 308.15 K): 9.8001 mol. frac. (printed as x × 10^; Solubility x × 10^4 (1-Octanol, 313.15 K): 10.2644 mol. frac. (printed as x × 10^; Solubility S × 10^3 (Buffer pH 2.0, 293.15 K): 1.0755 mol∙L^−1 (printed as S × 10^3); Solubility S × 10^3 (Buffer pH 2.0, 298.15 K): 1.2330 mol∙L^−1 (printed as S × 10^3); Solubility S × 10^3 (Buffer pH 2.0, 303.15 K): 1.4273 mol∙L^−1 (printed as S × 10^3); Solubility S × 10^3 (Buffer pH 2.0, 308.15 K): 1.6250 mol∙L^−1 (printed as S × 10^3); Solubility S × 10^3 (Buffer pH 2.0, 313.15 K): 1.8394 mol∙L^−1 (printed as S × 10^3); Solubility S × 10^4 (Buffer pH 7.4, 293.15 K): 3.0126 mol∙L^−1 (printed as S × 10^4); Solubility S × 10^4 (Buffer pH 7.4, 298.15 K): 3.1917 mol∙L^−1 (printed as S × 10^4); Solubility S × 10^4 (Buffer pH 7.4, 303.15 K): 3.3788 mol∙L^−1 (printed as S × 10^4); Solubility S × 10^4 (Buffer pH 7.4, 308.15 K): 3.5539 mol∙L^−1 (printed as S × 10^4); Solubility S × 10^4 (Buffer pH 7.4, 313.15 K): 3.7469 mol∙L^−1 (printed as S × 10^4)
3 | O=c1c2sc(=S)n(-c3ccc(Cl)cc3)c2ncn1CCCN1CCN(CC(O)(Cn2cncn2)c2ccc(F)cc2F)CC1 (stereo not drawn) [III, 6-[3-[4-[2-(2,4-difluorophenyl)-2-hydroxy-3-(1H-1,2,4-triazol-1-yl)propyl]-1-piperazinyl]propyl]-2,3-dihydro-3-(4-chlorophenyl)-2-thioxo-thiazolo[4,5-d]pyrimidin-7(6H)-one] |  | 1.7767 mol. frac. (printed as x × 10^ |  | 1.9566 mol. frac. (printed as x × 10^ |  | 2.1577 mol. frac. (printed as x × 10^ |  | 2.3729 mol. frac. (printed as x × 10^ |  | 12.3 (≈ 8110 µg/mL) | 1.1474 mol. frac. (printed as x × 10^ | 1.2247 mol. frac. (printed as x × 10^ | 1.3013 mol. frac. (printed as x × 10^ | 1.3731 mol. frac. (printed as x × 10^ | 1.4468 mol. frac. (printed as x × 10^ | 1.0651 mol. frac. (printed as x × 10^ | 1.2262 mol. frac. (printed as x × 10^ | 1.4201 mol. frac. (printed as x × 10^ | 1.6349 mol. frac. (printed as x × 10^ | 1.8788 mol. frac. (printed as x × 10^ | Solubility S × 10^2 (1-Octanol, 293.15 K): 1.1196 mol∙L^−1 (printed as S × 10^2); Solubility S × 10^2 (1-Octanol, 298.15 K): 1.2269 mol∙L^−1 (printed as S × 10^2); Solubility S × 10^2 (1-Octanol, 303.15 K): 1.3464 mol∙L^−1 (printed as S × 10^2); Solubility S × 10^2 (1-Octanol, 308.15 K): 1.4730 mol∙L^−1 (printed as S × 10^2); Solubility S × 10^2 (1-Octanol, 313.15 K): 1.6045 mol∙L^−1 (printed as S × 10^2); Solubility x × 10^3 (1-Octanol, 313.15 K): 2.5979 mol. frac. (printed as x × 10^; Solubility S × 10^4 (Buffer pH 2.0, 293.15 K): 6.3622 mol∙L^−1 (printed as S × 10^4); Solubility S × 10^4 (Buffer pH 2.0, 298.15 K): 6.7826 mol∙L^−1 (printed as S × 10^4); Solubility S × 10^4 (Buffer pH 2.0, 303.15 K): 7.1958 mol∙L^−1 (printed as S × 10^4); Solubility S × 10^4 (Buffer pH 2.0, 308.15 K): 7.5805 mol∙L^−1 (printed as S × 10^4); Solubility S × 10^4 (Buffer pH 2.0, 313.15 K): 7.9724 mol∙L^−1 (printed as S × 10^4); Solubility S × 10^5 (Buffer pH 7.4, 293.15 K): 5.8572 mol∙L^−1 (printed as S × 10^5); Solubility S × 10^5 (Buffer pH 7.4, 298.15 K): 6.7347 mol∙L^−1 (printed as S × 10^5); Solubility S × 10^5 (Buffer pH 7.4, 303.15 K): 7.7877 mol∙L^−1 (printed as S × 10^5); Solubility S × 10^5 (Buffer pH 7.4, 308.15 K): 8.9503 mol∙L^−1 (printed as S × 10^5); Solubility S × 10^5 (Buffer pH 7.4, 313.15 K): 10.2665 mol∙L^−1 (printed as S × 10^5)
